Like-named read-outs stand apart in the source and are kept apart here. *1 amine or outer side, *2 acyl side, *3 side chain or, on linkers, in order; H or OH if unused. Where a SMILES comes first, the peptide text is derived from it. The star is where a group is joined. X1 = CCC(C(=O)Nc1sc(C(=O)*)c(C)c1C(=O)OC)c1ccc(C(F)(F)F)cc1; Ethylenediamine = C(CN[*:2])N[*:1]; Boc = CC(C)(C)OC(=O)*
What was measured:
mD4 [1] = target: T1, mD4 (Molluscum contagiosum virus, UniProt Q98260); assay: mD4 dependent processive DNA synthesis in vitro (mD4 anti-processivity); format: biochemical
T1 sequence (Q98260 1-226): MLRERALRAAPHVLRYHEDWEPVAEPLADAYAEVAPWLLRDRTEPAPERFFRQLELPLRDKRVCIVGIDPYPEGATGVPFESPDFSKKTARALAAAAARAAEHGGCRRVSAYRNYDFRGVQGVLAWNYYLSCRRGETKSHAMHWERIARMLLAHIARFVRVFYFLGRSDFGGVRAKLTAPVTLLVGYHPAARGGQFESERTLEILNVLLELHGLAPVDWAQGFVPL

mD4 (mD4+A20+Pol) = mD4 (mD4+A20+Pol) (Molluscum contagiosum virus subtype 1, UniProt Q98260); assay: biochemical
Chain of mD4 (mD4+A20+Pol) (Q98260 1-226): as above

mD4 [2] = target: T1, mD4; assay: Micro-Scale Thermophoresis binding to mD4; conditions: microscale thermophoresis
[3] = 3-Day Cell Viability Assay (cytotoxicity)
[4] = Table 2, read-out: IC50 (μM), mD4 anti-processivity activity

| Compound | IC50 (mD4 [1]; [4]) [µM] | IC50 (mD4 (mD4+A20+Pol)) [µM] | other results |
| --- | --- | --- | --- |
| CCC(C(=O)Nc1sc(C(=O)NCCNC(=O)[C@@H](NC(=O)[C@@H](NC(=O)OC(C)(C)C)C(C)C)C(C)C)c(C)c1C(=O)OC)c1ccc(F)cc1 (stereo partly drawn) [Compound 5, Methyl 5-(((6S,9S)-6,9-diisopropyl-2,2-dimethyl-4,7,10-trioxo-3-oxa-5,8,11-triazatridecan-13-yl)carbamoyl)-2-(2-(4-fluorophenyl)butanamido)-4-methylthiophene-3-carboxylate] | 20 |  |  |
| CCC(C(=O)Nc1sc(C(=O)NCCNC(=O)[C@@H](NC(=O)[C@@H](NC(=O)[C@@H](NC(=O)OC(C)(C)C)C(C)C)C(C)C)C(C)C)c(C)c1C(=O)OC)c1ccc(F)cc1 (stereo partly drawn) [Compound 8, Methyl 2-(2-(4-fluorophenyl)butanamido)-4-methyl-S-(((6S,9S,12S)-6,9,12-triisopropyl-2,2-dimethyl-4,7,10,13-tetraoxo-3-oxa-5,8,11,14-tetraazahexadecan-16-yl)carbamoyl)thiophene-3-carboxylate] | 10.7 |  |  |
| CCC(C(=O)Nc1sc(C(=O)NCCNC(=O)[C@@H](NC(=O)[C@@H](NC(=O)[C@@H](N)C(C)C)C(C)C)C(C)C)c(C)c1C(=O)OC)c1ccc(F)cc1 (stereo partly drawn) [Compound 9, Methyl 5-((2-((S)-2-((S)-2-((S)-2-amino-3-methylbutanamido)-3-methylbutanamido)-3-methylbutanamido)ethyl)carbamoyl)-2-(2-(4-fluorophenyl)butanamido)-4-methylthiophene-3-carboxylate] |  | 5.6 | Kd (mD4 [2]): 2.84 µM; IC50 (mD4 [1]; read-out: IC50, mD4 dependent processive DNA synthesis in vitro): 5 µM; CC50 at 3 day [3]: > 100 µM; cytotoxicity, result in words ([3]; cell viability assay or seen when evaluated in mD4-VV infection): no measurable cytotoxicity |
| CCC(C(=O)Nc1sc(C(=O)NCCNC(=O)[C@H](NC(=O)[C@H](NC(=O)[C@H](N)C(C)C)C(C)C)C(C)C)c(C)c1C(=O)OC)c1ccc(F)cc1 (stereo partly drawn) [Compound 20, Methyl 5-((2-((R)-2-((R)-2-((R)-2-amino-3-methylbutanamido)-3-methylbutanamido)-3-methylbutanamido)ethyl)carbamoyl)-2-(2-(4-fluorophenyl)butanamido)-4-methylthiophene-3-carboxylate] | 3 |  |  |
| CCC(C(=O)Nc1sc(C(=O)NCCNC(=O)[C@@H](NC(=O)[C@@H](NC(=O)[C@@H](NC(=O)[C@@H](NC(=O)OC(C)(C)C)C(C)C)C(C)C)C(C)C)C(C)C)c(C)c1C(=O)OC)c1ccc(C(F)(F)F)cc1 (stereo partly drawn) [Compound 26, Methyl 4-methyl-5-(((6S,9S,12S,15S)-6,9,12,15-tetraisopropyl-2,2-dimethyl-4,7,10,13,16-pentaoxo-3-oxa-5,8,11,14,17-pentaazanonadecan-19-yl)carbamoyl)-2-(2-(4-(trifluoromethyl)phenyl)butanamido)thiophene-3-carboxylate] (Boc-VVVV-{Ethylenediamine-X1}) | 4.1 |  |  |
| CC(C)[C@H](N)C(=O)N[C@H](C(=O)N[C@H](C(=O)O)C(C)C)C(C)C [TriVal-Peptide Control, ((L)-Val)3, reference compound] (H-Val-Val-Val-OH) |  | > 100 |  |

From patent US20250332276A1, “Inhibitors of Molluscum Contagiosum Infection and Methods Using the Same” (priority 2022, published 2025)
